In patent US6448293B1, “Diphenyl ether compounds useful in therapy” (Pfizer Inc., priority 2000, dated 2002):
Where a name gives a salt, the structure may show the parent alone.

Molecular target: T1, human serotonin transporter (hSERT) (Homo sapiens, UniProt P31645)
T1 construct: expressed in transfected cells; host or cells: HEK-293 (human embryonic kidney cells), stably transfected
Assay: Inhibition of 3H-Serotonin uptake into HEK-293 cells stably transfected with hSERT
Type: cell-based
Conditions: not given
Method: A number of compounds were tested for biological activity by their ability to inhibit the uptake of serotonin by human serotonin transporters as follows.
Human embryonic kidney cells (HEK-293) stably transfected with either the human serotonin transporter (hSERT), noradrenaline transporter (hNET) or dopamine transporter (hDAT) were cultured under standard cell culture techniques (cells were grown at 37° C and 5% CO2 in DMEM-culture media (supplemented with 10% dialysed foetal calf serum (FCS), 2 mM 1-glutamine and 250 μg/ml geneticin)). Cells were harvested for the assay to yield a cell suspension of 750,000 cells/ml.
(i) Determination of inhibitor potency
All test compounds were dissolved in 100% DMSO and diluted down in assay buffer to give appropriate test concentrations. Assays were carried out in 96-well filter bottom plates. Cells (7500 cells/assay well) were pre-incubated in standard assay buffer containing either test compound, standard inhibitor or compound vehicle (1 % DMSO) for 5 minutes. Reactions were started by addition of either ^3H-Serotonin, ^3H-Noradrenaline or ^3H-Dopamine substrates. All reactions were carried out at room temperature in a shaking incubator. Incubation times were 5 minutes for the hSERT and hDAT assays and 15 minutes for the hNET assay. Reactions were terminated by removal of the reaction mixture using a vacuum manifold followed by rapid washing with ice cold assay buffer. The quantity of ^3H-substrate incorporated into the cells was then quantified.
Assay plates were dried in a microwave oven, scintillation fluid added, and radioactivity measured.
(iii) Standard Assay Buffer Composition:
Note: The pH of the buffer was adjusted to 7.40 with 1 M NaOH before addition of CaCI2 and pargyline.
(iv) Summary of Assay Parameters

T1 sequence (P31645 whole entry): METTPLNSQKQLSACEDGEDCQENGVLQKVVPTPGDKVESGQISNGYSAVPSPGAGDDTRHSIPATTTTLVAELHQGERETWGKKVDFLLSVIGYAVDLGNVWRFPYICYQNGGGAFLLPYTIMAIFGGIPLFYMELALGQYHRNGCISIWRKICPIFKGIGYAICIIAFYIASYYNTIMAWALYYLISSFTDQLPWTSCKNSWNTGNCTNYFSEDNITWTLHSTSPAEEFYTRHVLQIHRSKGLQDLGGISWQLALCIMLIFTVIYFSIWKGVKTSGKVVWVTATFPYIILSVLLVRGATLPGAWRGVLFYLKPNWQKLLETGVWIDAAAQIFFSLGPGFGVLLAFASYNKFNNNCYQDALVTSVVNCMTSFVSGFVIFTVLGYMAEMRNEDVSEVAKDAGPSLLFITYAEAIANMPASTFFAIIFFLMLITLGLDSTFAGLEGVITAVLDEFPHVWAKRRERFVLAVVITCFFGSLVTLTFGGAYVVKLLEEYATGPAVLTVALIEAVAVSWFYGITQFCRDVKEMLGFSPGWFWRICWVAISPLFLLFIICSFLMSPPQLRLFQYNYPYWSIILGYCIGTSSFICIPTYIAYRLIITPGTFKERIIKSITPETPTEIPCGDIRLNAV

| SMILES | IC50 [nM] |
| --- | --- |
| CNCc1cc(Br)ccc1Oc1ccc(SC)cc1 [Example 23, N-{5-Bromo-2-[4-(methylsulfanyl)phenoxy]benzyl}-N-methylamine] | ≤ 50 |
| CNCc1cc(-n2nccn2)ccc1Oc1ccc(SC)cc1 [Example 182, N-methyl-N-[2-[4-(methylsulfanyl)phenoxy]-5-(2 H-1,2,3-triazol-2-yl)benzyl]amine] | ≤ 50 |
| CNCc1cc(-n2ccnn2)ccc1Oc1ccc(SC)cc1 [Example 181, N-Methyl-N-[2-[4-(methylsulfanyl)phenoxy]-5-(1 H-1,2,3-triazol-1-yl)benzyl]amine] | ≤ 50 |
| CNCc1cc(-n2cncn2)ccc1Oc1ccc(SC)cc1 [Example 187, N-Methyl-N-[2-[4-(methylsulfanyl)phenoxy]-5-(1 H-1,2,4-triazol-1-yl)benzyl]amine] | ≤ 50 |
| CSc1ccc(Oc2ccc(-n3nccn3)cc2CN(C)C)cc1 [Example 183, N,N-Dimethyl-N-[2-[4-(methylsulfanyl)phenoxy]-5-(2 H-1,2,3-triazol-2-yl)benzyl]amine] | ≤ 50 |
| CNCc1cc(-n2ccnc2)ccc1Oc1ccc(SC)cc1 [Example 185, N-[2-[4-(Methylsulfanyl)phenoxy]-5-(1 H-imidazol-1-yl)benzyl]-N-methylamine] | ≤ 50 |
| CSc1ccc(Oc2ccc(NS(=O)(=O)C(F)(F)F)cc2CN(C)C)cc1 [Example 140, N-{3-[(Dimethylamino)methyl]-4-[4-(methylsulfanyl)phenoxy]phenyl}-(trifluoro)methanesulfonamide] | ≤ 50 |
| CSc1ccc(Oc2ccc(-n3cnnc3)cc2CN(C)C)cc1 [Example 189, N-[2-[4-(Methylsulfanyl)phenoxy]-5-(4H-1,2,4-triazol-4-yl)benzyl]-N,N-dimethylamine] | ≤ 50 |

Same assay, conditions: HEK-293 cells transfected with hSERT, 3H-Serotonin uptake, 5 minutes incubation, room temperature; read-out: serotonin re-uptake inhibition (SRI) IC50

| IC50 [nM] | SMILES |
| --- | --- |
| ≤ 50 | CN(C)Cc1cc(NS(C)(=O)=O)ccc1Oc1ccc(OC(F)(F)F)cc1 [Example 116] |
| ≤ 50 | CNCc1cc(C(=O)NCCOC)ccc1Oc1ccc(SC)cc1 [Example 170] |
| ≤ 50 | CN(C)Cc1cc([S+](C)[O-])ccc1Oc1ccc(C(F)(F)F)cc1 (stereo not shown) [Example 147] |
| ≤ 50 | CSc1ccc(Oc2ccc(Br)cc2CN(C)C)cc1 [Example 9] |
| ≤ 50 | CNC(=O)c1ccc(Oc2ccc(OC(F)(F)F)cc2)c(CN(C)C)c1 [Example 101] |
| ≤ 50 | CNCc1cc(NS(C)(=O)=O)ccc1Oc1ccc(C(F)(F)F)cc1 [Example 121, N-{3-[(Methylamino)methyl]-4-[4-(trifluoromethyl)phenoxy]phenyl}-methanesulfonamide] |
| ≤ 50 | CNCc1cc(O)ccc1Oc1ccc(SC)cc1 [Example 74, 3-[(Methylamino)methyl]-4-[4-(methylsulfanyl)phenoxy]phenol] |
| ≤ 50 | CN(C)Cc1cc(CO)ccc1Oc1ccc(OC(F)(F)F)cc1 [Example 157] |
| ≤ 50 | CN(C)Cc1cc(C(N)=O)ccc1Oc1ccc(C(F)(F)F)cc1 [Example 95] |
| ≤ 50 | CN(C)Cc1cc(CNS(C)(=O)=O)ccc1Oc1ccc(OC(F)(F)F)cc1 [Example 117] |
| ≤ 50 | CN(C)Cc1cc(S(C)(=O)=O)ccc1Oc1ccc(OC(F)(F)F)cc1 [Example 145, N,N-Dimethyl-N-{5-(methylsulfonyl)-2-[4-(trifluoromethoxy)phenoxy]benzyl}amine] |
| ≤ 50 | CNCc1cc(CO)ccc1Oc1ccc(SC)cc1 [Example 156, {3-[(Methylamino)methyl]-4-[4-(methylsulfanyl)phenoxy]phenyl}methanol] |
| ≤ 50 | CSc1ccc(Oc2ccc(C(N)=O)cc2CN(C)C)cc1 [Example 91, 3-[(Dimethylamino)methyl]-4-[4-(methylsulfanyl)phenoxy]benzamide] |
| ≤ 50 | CN(C)Cc1cc(CN)ccc1Oc1ccc(OC(F)(F)F)cc1 [Example 110, N-{5-(Aminomethyl)-2-[4-(trifluoromethoxy)phenoxy]benzyl}-N,N-dimethylamine] |
| ≤ 50 | CNCc1cc(C#N)ccc1Oc1ccc(SC)cc1 [Example 87, 3-[(Methylamino)methyl]-4-[4-(methylsulfanyl)phenoxy]benzonitrile] |
| ≤ 50 | CNCc1cc(C(=O)N[C@@H](C)CO)ccc1Oc1ccc(SC)cc1 [Example 174] |
| ≤ 50 | CNCc1cc(-n2ccc(N)n2)ccc1Oc1ccc(SC)cc1 [Example 190, N-{5-(3-Amino-1H-pyrazol-1-yl)-2-[4-(methylsulfanyl)phenoxy]benzyl}-N-methylamine] |
| ≤ 50 | CNCc1cc(C(=O)NC)ccc1Oc1ccc(SC)c(OC)c1 [Example 176] |
| ≤ 50 | CSc1ccc(Oc2ccc(C#N)cc2CN(C)C)cc1 [Example 85] |

| IC50 [nM] | SMILES |
| --- | --- |
| ≤ 50 | CSc1ccc(Oc2ccc(S(=O)(=O)N[C@@H](C)CO)cc2CN(C)C)cc1 [Example 53] |
| ≤ 50 | CC[S+]([O-])c1ccc(CN(C)C)c(Oc2ccc(C(F)(F)F)cc2)c1 (stereo not shown) [Example 148] |
| ≤ 50 | CN(C)Cc1ccc(C(N)=O)cc1Oc1ccc(OC(F)(F)F)cc1 [Example 98, 4-[(Dimethylamino)methyl]-3-[4-(trifluoromethoxy)phenoxy]benzamide] |
| ≤ 50 | CNS(=O)(=O)c1ccc(Oc2ccc(C(F)(F)F)cc2)c(CN(C)C)c1 [Example 30] |
| ≤ 50 | CN(C)Cc1ccc(CNS(C)(=O)=O)cc1Oc1ccc(OC(F)(F)F)cc1 [Example 120] |
| ≤ 50 | CN(C)Cc1cc(NS(C)(=O)=O)ccc1Oc1ccc(C(F)(F)F)cc1 [Example 114, N-(3-[(Dimethylamino)methyl]-4-[4-(trifluoromethyl)phenoxy]phenyl} methanesulfonamide] |
| ≤ 50 | CNCc1cc(N(CCO)S(C)(=O)=O)ccc1Oc1ccc(SC)cc1 [Example 130] |
| ≤ 50 | CSc1ccc(Oc2ccc(-n3cncn3)cc2CN(C)C)cc1 [Example 188, N,N-dimethyl-N-[2-[4-(methylsulfanyl)phenoxy]-5-(1 H-1,2,4-triazol-1-yl)benzyl]-amine] |
| ≤ 50 | CN(C)Cc1ccc(C(N)=O)cc1Oc1ccc(C(F)(F)F)cc1 [Example 90, 4-[(Dimethylamino)methyl]-3-[4-(trifluoromethyl)phenoxy]benzamide] |
| ≤ 50 | CNCc1cc(NS(C)(=O)=O)ccc1Oc1ccc(SC)cc1 [Example 128, N-{3-[(Methylamino)methyl]-4-[4-(methylsulfanyl)phenoxy]phenyl}methanesulfonamide] |
| ≤ 50 | COc1ccc(Oc2ccc(SC)cc2)c(CN(C)C)c1 [Example 14] |
| ≤ 50 | CSc1ccc(Oc2ccc(S(N)(=O)=O)cc2CN(C)C)cc1 [Example 28, 3-[(Dimethylamino)methyl]-4-[4-(methylsulfanyl)phenoxy]benzenesulfonamide] |
| ≤ 50 | CNCc1cc(C(N)=O)ccc1Oc1ccc(SC)cc1 [Example 97] |
| ≤ 50 | CNCc1cc(C(N)=O)ccc1Oc1ccc(SC)c(OC)c1 [Example 169, 4-[3-Methoxy-4-(methylsulfanyl)phenoxy]-3-[(methylamino)methyl]benzamide] |
| ≤ 50 | CSc1ccc(Oc2ccc(OC(F)(F)F)cc2)c(CN(C)C)c1 [Example 141, N,N-Dimethyl-N-{5-(methylsulfanyl)-2-[4-(trifluoromethoxy)phenoxy]benzyl}amine] |
| ≤ 50 | CSc1ccc(Oc2ccc(-n3ccnn3)cc2CN(C)C)cc1 [Example 184, N,N-Dimethyl-N-[2-[4-(methylsulfanyl)phenoxy]-5-(1 H-1,2,3-triazol-1-yl)benzyl]-amine] |
| ≤ 50 | CN(C)Cc1cc(Br)ccc1Oc1ccc(C(F)(F)F)cc1 [Example 3] |
| ≤ 50 | CN(C)Cc1cc(C#N)ccc1Oc1ccc(OC(F)(F)F)cc1 [Example 84] |
| ≤ 50 | CN(C)Cc1cc(C(N)=O)ccc1Oc1ccc(OC(F)(F)F)cc1 [Example 94] |

| SMILES | IC50 [nM] |
| --- | --- |
| CN(C)Cc1cc(S(N)(=O)=O)ccc1Oc1ccc(OC(F)(F)F)cc1 [Example 36] | ≤ 50 |
| CSc1ccc(Oc2ccc(Cl)cc2CN(C)C)cc1 [Example 135] | ≤ 50 |

Test system: not given
Assay: not given
Conditions: not given

| melting point [°C] | SMILES |
| --- | --- |
| 193 to 194 | CSc1ccc(Oc2ccc(S(N)(=O)=O)cc2CN(C)C)cc1 (as salt: hydrochloride) [Example 28, 3-[(Dimethylamino)methyl]-4-[4-(methylsulfanyl)phenoxy]benzenesulfonamide] |
